Data published in patent US5536848A, “Bioactive acetogenins and derivatives” (Purdue Research Foundation, priority 1994, dated 1996).
Converted amounts (≈) assume the structure as drawn. Read-outs that look alike come from different tables or passages of the source.

Tests used:
[1] = system: brine shrimp (Artemia salina Leach); test: Brine shrimp lethality test (BST); assay type: in vivo; settings: Artemia salina, read-out: BST LC50
Experimental: (§1) The brine shrimp (Artemia salina Leach) test (BST) was performed as modified to determine LC50 values in μg/ml. Seven-day in vitro cytotoxicity tests against human tumor cell lines were carried out at the Purdue Cancer Center, using standard protocols for A-549 (human lung carcinoma), MCF-7 (human breast carcinoma) and HT-29 (human colon carcinoma) with adriamycin as a positive control. The reported ED50 values in μg/ml (Table 5) were tabulated from the same run in order to facilitate comparison for the SAR's.
(§2) Bioassays. The brine shrimp (Artemia salina Leach) test (BST) was performed as modified. Zhao et al., Phytochemistry, 33, p. 1065 (1993). Seven-day in vitro cytotoxicity tests against human tumor cell lines were carried out at the Purdue Cancer Center, using standard protocols for A-549 (human lung carcinoma), Gu, Z. M.; Fang, X.-P.; Miesbauer, L. R., Smith, D. L.; and McLaughlin, J. L., 30, 31, and 32-Hydroxybullatacinones: Bioactive Terminally-Hydroxylated Annonaceous Acetogenins from Annona bullata., J. Nat. Prod., 1993, 56, 870-876; MCF-7 (human breast carcinoma) McLaughlin, J. L., Chang, C.-J., and Smith, D. L., Simple Bench-Top Bioassays (Brine Shrimp and Potato Discs) for the Discoveries of Plant Antitumor Compounds: A Review of Recent Progress. In Kinghorn, A. D., Balandrin, J. (Eds): "Human Medicinal Agents from Plants", ACS Symposium Series, Washington, D.C., American Chemical Society, 1993, pp. 112-137; and HT-29 (human colon carcinoma), Mclaughlin, J.L., Chang, C.-J., Smith, D.L., "'Bench-Top' Bioassays for the Discovery of Bioactive Natural Products: An Update", in Rahman, Atta-ur- (Ed): "Studies in Natural Product Chemistry", Vol. 9, Amsterdam, Elsevier, 1991, pp. 383-409, with adriamycin as a positive control. The reported values (Table IV) were tabulated from the same run in order to facilitate comparison for the SAR's.
(§3) Bioassay. The extracts, fractions, and isolates were routinely evaluated for lethality to brine shrimp larvae (BST). Cytotoxicities against human solid tumor cells were measured at the Purdue Cell Culture Laboratory, Purdue Cancer Center, for the A-549 lung carcinoma, MCF-7 breast carcinoma, and HT-29 colon adenocarcinoma.
(§4) The brine shrimp lethality test (BST), on newly hatched naupleii, was performed in our laboratory as previously described. McLaughlin, Methods in Plant Biochemistry, Vol. 6, Hostettmann, Academic Press, London, pp. 1-33 (1991). Seven day cytotoxicities against human solid tumor cells were measured at the Cell Culture Laboratory, Purdue Cancer Center, for the A-549 lung carcinoma, MCF-7 breast carcinoma, and HT-29 colon adenocarcinoma. The respiratory functions of rat liver mitochondria (RMB) were measured polarographically by determination of their rates of oxygen consumption after the addition of acetogenins or their derivatives.

[2] = system: A-549 (human lung carcinoma); test: Seven-day in vitro cytotoxicity, A-549; assay type: cell-based; settings: for IC50: A549, 168 h
Experimental: as §1, §2, §3, §4

[3] = system: MCF-7 (human breast carcinoma); test: Seven-day in vitro cytotoxicity, MCF-7; assay type: cell-based; settings: for IC50: MCF7, 168 h
Experimental: as §1, §2, §3, §4

[4] = system: HT-29 (human colon adenocarcinoma); test: Seven-day in vitro cytotoxicity, HT-29; assay type: cell-based; settings: for IC50: HT-29, 168 h
Experimental: as §1, §2, §3, §4

[5] = system: HT-29 (human colon adenocarcinoma); test: Seven-day in vitro cytotoxicity, HT-29; assay type: cell-based; settings: HT-29, 168 h, read-out: HT-29 LC50, Table 5, same run
rat liver mitochondria = test: Rat mitochondrial bioassay (RMB), inhibition of oxygen uptake; assay type: biochemical; settings: for mitochondrial inhibition: rat liver mitochondria, result in words; for RMB IC50: Table 17, oxygen consumption of rat liver mitochondria, parent and acetal derivative in the same run
Experimental: as §4
The oxidative phosphorylation pathway (or electron transport chain) is responsible for oxidizing NADH to NAD^+ and producing ATP from ADP and phosphate within the mitochondria. There are five enzyme complexes in this pathway: NADH-ubiquinone reductase (complex I), succinate-ubiquinone reductase (complex II), ubiquinone-cytochrome c reductase (complex III), cytochrome c oxidase (complex IV) and the F0 F1 -ATPase complex (complex V). The end point of the oxidative phosphorylation pathway is the reduction of oxygen (O2) to water in the mitochondria (thus, it is also called respiration), coupled with the synthesis of ATP by complex V. State 4 respiration is the oxidation of substrates in the absence of a phosphate acceptor (e.g., ADP). State 3 respiration occurs when a phosphate acceptor is present and oxygen utilization increases. The ratio of State 3 respiration to State 4 respiration is the respiratory control ratio (RCR).
The process of respiration can be measured by using an oxygen electrode to detect the amount of oxygen present in the assay cell. If respiration is occurring normally, the concentration of oxygen should slowly decrease as it is reduced to water. However, if there is some type of inhibition of oxidative phosphorylation occurring, the oxygen level will no longer decrease at the same rate. This rate of oxygen usage can be visualized by a chart recorder connected to the oxygen electrode. At normal respiration,a decreasing baseline slope will be established. During inhibition, however, the baseline slope should decrease (i.e., the slope will move closer to zero), since the oxygen present is no longer being reduced. In other words, the oxygen concentration in the assay cell is no longer decreasing at the same rate as in normal respiration. Furthermore, inhibition sites at specific complexes can be determined by competitive inhibition studies. This is accomplished by addition of a known inhibitor of, e.g., complex I, followed by the new respiration-inhibiting compound. […] This can be verified by trying inhibitors at other sites and by reversing the order, i.e., adding the new compound and then the known inhibitor.
The method for isolating rat liver mitochondria essentially followed the published methodology. Ahammadsahib et al., Life Sciences, 53, pgs. 1113-1120 (1993). The isolation buffer used for the isolation of mitochondria from rat liver consisted of 4 mM Tris-HC1, 0.5 mM EDTA, and 250 mM sucrose at a pH of 7.4. The isolation buffer was kept at refrigeration temperature at all times by storing on ice during the whole procedure. The rats were supplied by Sprague-Dawley, were male, and weighed approximately 300-320 grams. They were sacrificed with carbon dioxide, and the livers were removed and immediately placed in the isolation buffer on ice. The livers were then rinsed with several washings of cold buffer, cut into pieces, and homogenized. The homogenates were then centrifuged (Sorvall Superspeed RC2-B, 4° C) for 10 minutes at approximately 2000 rpms; the supernatant was next centrifuged for 20 minutes at approximately 9000 rpms. The pellet was reserved and resuspended in 2 ml of assay buffer with a glass pipet. The assay buffer consisted of 100 mM KC1, 5 mM KH2 PO4, 1 mM EDTA, 5 mM glutamate, 1 mM malate, and 20 mM Tris-HCl at a pH of 7.4 and was stored at room temperature. […]

[6] = system: A2780 human ovarian cancer xenografts; settings: 50 μg/kg; athymic mice bearing A2780 human ovarian cancer xenografts; cited from earlier work
[7] = read-out: MCF-7 ED50, Table 17, seven day cytotoxicity, same run
[8] = read-out: MCF-7 LC50, Table 5, seven-day cytotoxicity, same run
[9] = read-out: HT-29 ED50, Table 17, seven day cytotoxicity, same run
[10] = Table 17, seven day cytotoxicity, same run, read-out: A-549 ED50
[11] = Table 17, seven day cytotoxicity, same run, read-out: MCF-7 ED50
[12] = Table 17, seven day cytotoxicity, same run, read-out: HT-29 ED50

Row | SMILES | LC50 ([1]; Table 17, same run) | IC50 ([2]; read-out: A-549 ED50) | IC50 [3, 7] | IC50 [2, 10] | IC50 [3, 11] | IC50 [4, 12] | RMB IC50 (rat liver mitochondria) | also measured
1 | COc1cccc2c1C(=O)c1c(O)c3c(c(O)c1C2=O)C[C@@](O)(C(=O)CO)C[C@@H]3O[C@H]1C[C@H](N)[C@H](O)[C@H](C)O1 [Adriamycin, adriamycin, reference compound] | 80 ng/mL (≈ 147 nM) | 4.19 ng/mL (≈ 7.71 nM) | 401 ng/mL (≈ 738 nM) | – | – | – | – | LC50 ([1]; Table 5, brine shrimp larvae): 257 ng/mL (≈ 473 nM); LC50 ([1]; Table 12): 80 ng/mL (≈ 147 nM); IC50 ([2]; read-out: A-549 LC50): 0.104 ng/mL (≈ 0.191 nM); EC50 ([2]; A549, read-out: A-549): 8.5 ng/mL (≈ 15.6 nM); IC50 [3, 8]: 17.6 ng/mL (≈ 32.4 nM); IC50 ([3]; read-out: MCF-7 LC50, Table 12, same run): 231 ng/mL (≈ 425 nM); EC50 ([3]; MCF7, read-out: MCF-7): 519 ng/mL (≈ 955 nM); IC50 [4, 9]: 35.5 ng/mL (≈ 65.3 nM); IC50 ([4]; read-out: HT-29 LC50, Table 12, same run): 39.2 ng/mL (≈ 72.1 nM); EC50 ([4]; HT-29, read-out: HT-29): 37.2 ng/mL (≈ 68.4 nM); IC50 [5]: 0.153 ng/mL (≈ 0.281 nM)
2 | CCCCCCCCCC[C@H](O)[C@H]1CC[C@H]([C@H]2CC[C@H]([C@H](O)CCCCCCCCCC[C@@H](O)CC3=C[C@H](C)OC3=O)O2)O1 [Bullatacin, reference compound] | – | – | – | – | – | – | – | mitochondrial inhibition (rat liver mitochondria): high activity; tumor growth inhibition (TGI) [6]: 67%
3 | CCCCCCCCCCC(O)C1CCC(C2CCC(C(O)CCCCC(O)CCCCCCCC3=CC(C)OC3=O)O2)O1 (stereo not drawn) [Compound 1, Bullatin] | – | – | – | – | – | – | – | LC50 ([1]; Table 5, brine shrimp larvae): 4 ng/mL (≈ 6.42 nM); IC50 ([2]; read-out: A-549 LC50): 0.00939 ng/mL (≈ 0.0151 nM); IC50 [3, 8]: 0.00833 ng/mL (≈ 0.0134 nM); mitochondrial inhibition (rat liver mitochondria): high activity; IC50 [5]: 0.00378 ng/mL (≈ 0.00607 nM)
4 | CCCCCCCCCCCCCC[C@@H](O)[C@H]1CC[C@H]([C@H]2CC[C@@H](CCCCC[C@@H](O)CC3=C[C@H](C)OC3=O)OCO2)O1 [Compound 9, 10,13-Formaldehyde acetal derivative of goniothalamicin] | 53.8 ng/mL (≈ 88.4 nM) | – | – | 1050 ng/mL (≈ 1720 nM) | 0.409 ng/mL (≈ 0.672 nM) | 0.0219 ng/mL (≈ 0.036 nM) | 203.1 n moles/Lt/mg protein | –
5 | CCCCCCCCCCCCCC[C@H]1OCO[C@@H]1CC[C@H](O)[C@@H]1CC[C@@H](CCCCC[C@@H](O)CC2=C[C@H](C)OC2=O)O1 [Compound 12, 17,18-formaldehyde acetal derivative] | 7.5 ng/mL (≈ 12.3 nM) | – | – | 69.5 ng/mL (≈ 114 nM) | 268 ng/mL (≈ 440 nM) | – | 290.3 n moles/Lt/mg protein | –
6 | CCCCCC[C@H]1CCC[C@@H]([C@H]2CC[C@H]([C@H]3CC[C@@H]([C@@H]4CC[C@@H](CCCCCCCCCC5=C[C@H](C)OC5=O)O4)OCO3)O2)OCO1 [Compound 14, 16,19- and 24,28-bis-formaldehyde acetal derivative] | 10200 ng/mL (≈ 15400 nM) | – | – | 1780 ng/mL (≈ 2680 nM) | 1 ng/mL (≈ 1.51 nM) | 0.000289 ng/mL (≈ 0.000436 nM) | – | –
7 | CCCCCCCCCC[C@H](O)[C@H]1CC[C@H]([C@H](O)CC[C@H](O)[C@@H]2CC[C@@H](CCCCCCC[C@@H](O)CC3=C[C@H](C)OC3=O)O2)O1 [Compound 18, Bullatalicin, reference compound] | 1200 ng/mL (≈ 1880 nM) | – | – | – | 262 ng/mL (≈ 410 nM) | 6.48e-05 ng/mL (≈ 0.000101 nM) | 19.2 n moles/Lt/mg protein | –
8 | CCCCCCCCCC[C@@H](O)[C@H]1CC[C@H]([C@H](O)CC[C@H](O)[C@@H]2CC[C@@H](CCCCCCC[C@@H]3CC(CC(C)=O)C(=O)O3)O2)O1 (stereo partly drawn) [Compound 24, (2,4-Cis and trans)bullatanocinones, reference compound] | 280 ng/mL (≈ 438 nM) | 0.643 ng/mL (≈ 1.01 nM) | 293 ng/mL (≈ 459 nM) | – | – | – | 61.1 n moles/Lt/mg protein | IC50 [4, 9]: 2.34e-05 ng/mL (≈ 3.66e-05 nM)
9 | CCCCCCCCCC[C@@H](O)[C@H]1CC[C@H]([C@H]2CC[C@@H]([C@@H]3CC[C@@H](CCCCCCC[C@@H]4CC(CC(C)=O)C(=O)O4)O3)OCO2)O1 (stereo partly drawn) [Compound 25, 16,19-Formaldehyde acetal derivatives of (2,4-cis and trans)-bullatanocinones] | 15 ng/mL (≈ 23 nM) | – | – | 0.0677 ng/mL (≈ 0.104 nM) | 1280 ng/mL (≈ 1970 nM) | – | 28.3 n moles/Lt/mg protein | –
10 | CCCCCCCCCC[C@H](O)[C@H]1CC[C@H]([C@H](O)CC[C@H](O)[C@@H]2CC[C@@H](CCCCCCC[C@@H]3CC(CC(C)=O)C(=O)O3)O2)O1 (stereo partly drawn) [Compound 26, (2,4-Cis and trans)-bullatalicinones, reference compound] | 470 ng/mL (≈ 736 nM) | 0.0562 ng/mL (≈ 0.088 nM) | 1.57 ng/mL (≈ 2.46 nM) | – | – | – | 23.0 n moles/Lt/mg protein | –
